Experimental data from patent publication US11512053B2, “Arginine methyltransferase inhibitors and uses thereof” (priority 2013, dated 2022).
pIC50: −log10 of the molar value. Counter-ions that a name gives are not always drawn. Like-named read-outs stand apart in the source and are kept apart here.

Columns and labels:
[1] = test system: mono-methyl arginine in RKO cells; experiment: RKO Methylation Assay, In Cell Western (ICW) for detection of mono-methyl arginine and DNA content; type: cell-based; conditions: for EC30: Homo sapiens, RKO, 72 h
Method in brief: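 RKO cells were treated with compound for 72 hours at 37 °C, methanol-fixed and stained overnight at 4 °C with anti-mono-methyl arginine (1:200), with DRAQ5 for DNA. Odyssey 800/700 nm intensity ratio was normalized to DMSO and 20 μM reference-compound controls. EC30 from triplicate nine-point curves.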

[2] = molecular target: full-length human PRMT1 isoform 1 (GST-tagged) (Homo sapiens, UniProt Q99873); experiment: PRMT1 Biochemical Assay (3H-SAM Flashplate, peptide substrate)
Chain of full-length human PRMT1 isoform 1 (GST-tagged) (Q99873 with tags, fused parts or gaps): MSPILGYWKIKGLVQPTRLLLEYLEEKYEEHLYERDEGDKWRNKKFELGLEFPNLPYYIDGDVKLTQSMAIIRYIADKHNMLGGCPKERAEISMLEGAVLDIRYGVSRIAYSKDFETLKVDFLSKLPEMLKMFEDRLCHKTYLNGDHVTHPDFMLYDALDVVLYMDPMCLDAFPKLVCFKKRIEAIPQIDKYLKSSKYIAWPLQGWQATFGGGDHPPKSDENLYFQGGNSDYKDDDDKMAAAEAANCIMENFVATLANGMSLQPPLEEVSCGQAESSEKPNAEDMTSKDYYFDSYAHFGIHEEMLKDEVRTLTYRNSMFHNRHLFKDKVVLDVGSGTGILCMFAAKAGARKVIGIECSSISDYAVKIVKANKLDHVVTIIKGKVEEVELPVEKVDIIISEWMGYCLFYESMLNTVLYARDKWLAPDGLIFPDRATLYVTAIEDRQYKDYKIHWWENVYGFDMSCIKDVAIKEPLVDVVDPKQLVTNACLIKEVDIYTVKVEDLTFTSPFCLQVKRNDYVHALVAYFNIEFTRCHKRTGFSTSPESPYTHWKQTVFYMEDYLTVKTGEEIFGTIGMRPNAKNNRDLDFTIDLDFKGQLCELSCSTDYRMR
Method in brief: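 GST-tagged full-length PRMT1 from baculovirus-infected cells, preincubated 30 min at room temperature with compound in 20 mM Bicine pH 7.6, TCEP, BSG, Tween 20. Reaction started with 3H-SAM plus biotinylated peptide, stopped with 300 uM unlabelled SAM. Streptavidin Flashplate capture and scintillation counting; % inhibition curve-fitted for IC50.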

[3] = RKO cells, 72 hours incubation, mono-methyl arginine signal normalised to DNA content, single experiment or average of multiple experiments, read-out: In Cell Western EC30
[4] = RKO cells, 72 hours compound incubation, mono-methyl arginine signal normalised to DNA content (DRAQ5), percent activation vs 20 μM reference compound
[5] = single experiment or average of multiple experiments
[6] = RKO cells, 72 hours compound incubation, mono-methyl arginine signal normalised to DNA content (DRAQ5), percent activation vs 20 μM reference compound, read-out: In Cell Western EC30
[7] = read-out: In Cell Western EC30, RKO cells, 72 hours compound incubation, mono-methyl arginine signal normalised to DNA content (DRAQ5), percent activation vs 20 μM reference compound
[8] = read-out: In Cell Western EC30, RKO cells, 72 hours incubation, mono-methyl arginine signal normalised to DNA content, single experiment or average of multiple experiments

Compound	pIC50 [2, 5]	pIC50 [2]	EC30 [1, 3]	In Cell Western EC30 [1, 4]	EC30 [1, 6]	EC30 [1, 7]	EC30 [1, 8]
CN(CCN)Cc1n[nH]cc1C1CCCCC1 [Compound 33]	7.70	–	3330 nM	B (“B” indicates an EC30 of 3.01-12.00 μM)	–	–	–
CC1CCC(c2n[nH]cc2CN(C)CCN)CC1 (stereo not drawn) [Compound 37, N^1-methyl-N^1-((3-(4-methylcyclohexyl)-1H-pyrazol-4-yl)methyl)ethane-1,2-diamine]	8.00	–	260 nM	A (“A” indicates an EC30 ≤ 3.00 μM)	–	–	–
CNCCN(C)Cc1c[nH]nc1C1CCN(C(=O)CC(C)C)CC1 [Compound 40, 3-methyl-1-(4-(4-((methyl(2-(methylamino)ethyl)amino)methyl)-1H-pyrazol-3-yl)piperidin-1-yl)butan-1-one]	7.70	–	870 nM	–	< 3000 nM	–	–
CN(CCN)Cc1c[nH]nc1C1CCC2(CCCC2)CC1 [Compound 45]	8.55	> 7.00	54 nM	–	< 3000 nM	–	–
CNCCN(C)Cc1c[nH]nc1C1CCC2(CCCCC2)CC1 [Compound 46]	8.10	> 7.00	8 nM	–	< 3000 nM	–	–
CNCCN(C)Cc1cn(C)nc1C1CCC2(CCCC2)CC1 [Compound 47]	8.37	> 7.00	52 nM	–	–	–	–
CNCCN(C)Cc1c[nH]nc1C1CCC2(CCCC2)CC1 [Compound 48]	8.13	> 7.00	14 nM	–	< 3000 nM	–	–
CNCCN(C)Cc1cnn(C)c1C1CCC2(CCCC2)CC1 [Compound 49]	8.37	> 7.00	50 nM	–	–	–	–
CNCCN(C)Cc1c[nH]nc1C1CCC2(CCCO2)CC1 (stereo not drawn) [Compound 51]	8.03	> 7.00	52 nM	–	< 3000 nM	–	–
CNCCN(C)Cc1c[nH]nc1C1CCC2(CCOC2)CC1 (stereo not drawn) [Compound 54]	8.10	> 7.00	87 nM	–	< 3000 nM	–	–
CNCCN(C)Cc1c[nH]nc1C1CCC2(CCCCC2)OC1 (stereo not drawn) [Compound 62]	7.93	> 7.00	169 nM	–	< 3000 nM	–	–
CNCCN(C)Cc1c[nH]nc1C1CCC(Oc2ccccc2)CC1 (stereo not drawn) [Compound 67]	8.11	> 7.00	81 nM	–	< 3000 nM	–	–
CNCCN(C)Cc1c[nH]nc1C1CCC(C)(C)C(C(=O)NCc2ccccc2)C1 (stereo not drawn) [Compound 92]	7.68	> 7.00	2170 nM	–	< 3000 nM	–	–
CNCCN(C)Cc1ccnn1C1CCC2(CC1)CC(C)(C)CO2 (stereo not drawn) [Compound 274, trifluoroacetate]	8.09	> 7.00	–	–	–	< 3000 nM	16.8 nM
CNCCN(C)Cc1ccnn1C1CCC2(CCCC2)CC1 [Compound 275, Methyl[2-(methylamino)ethyl][(1-[spiro[4.5]decan-8-yl]-1H-pyrazol-5-yl)methyl]amine trifluoroacetate]	8.34	> 7.00	–	–	–	< 3000 nM	84 nM

Further lines, with some results ahead:

pIC50 [2, 5]	pIC50 [2]	Compound	EC30 [1, 3]	In Cell Western EC30 [1, 4]	EC30 [1, 6]	EC30 [1, 7]	EC30 [1, 8]
7.70	–	CNCCN(C)Cc1c[nH]nc1C1CCN(C(=O)C(C)C)CC1 [Compound 34]	1150 nM	A (“A” indicates an EC30 ≤ 3.00 μM)	–	–	–
8.00	–	CNCCN(C)Cc1c[nH]nc1C1CCN(C)CC1 [Compound 41]	> 20000 nM	C (“C” indicates an EC30 > 12.01 μM)	–	–	–
8.07	> 7.00	CNCCN(C)Cc1c[nH]nc1C1CCC(C(C)C)CC1 (stereo not drawn) [Compound 50]	27 nM	–	< 3000 nM	–	–
8.33	> 7.00	CNCCN(C)Cc1c[nH]nc1C1CCC(C)(C)CC1 [Compound 52]	41 nM	–	–	–	–
7.98	> 7.00	CNCCN(C)Cc1c[nH]nc1C1CCC(COC)CC1 (stereo not drawn) [Compound 53]	17 nM	–	< 3000 nM	–	–
7.89	> 7.00	CNCCN(C)Cc1c[nH]nc1C1CCC(CCOC)CC1 (stereo not drawn) [Compound 55]	63 nM	–	< 3000 nM	–	–
7.86	> 7.00	CNCCN(C)Cc1c[nH]nc1C1CCC(OC(C)C)CC1 (stereo not drawn) [Compound 56]	96 nM	–	–	–	–
7.73	> 7.00	CNCCN(C)Cc1c[nH]nc1C1CCC(COC)(COC)CC1 [Compound 57]	25 nM	–	< 3000 nM	–	–
7.58	> 7.00	CNCCN(C)Cc1c[nH]nc1C1CCC(OCCOC)CC1 (stereo not drawn) [Compound 58]	978 nM	–	–	–	–
7.71	> 7.00	CNCCN(C)Cc1c[nH]nc1C1CC(C)(C)OC(C)(C)C1 [Compound 59]	357 nM	–	–	–	–
7.56	> 7.00	CNCCN(C)Cc1c[nH]nc1C1CCC(COCCOC)(COCCOC)CC1 [Compound 60]	2840 nM	–	< 3000 nM	–	–
7.69	> 7.00	CNCCN(C)Cc1c[nH]nc1C1CCC(COC(C)C)(COC(C)C)CC1 [Compound 61]	149 nM	–	< 3000 nM	–	–
8.05	> 7.00	CNCCN(C)Cc1c[nH]nc1C1CCC2(CC1)CC(C)OC(C)C2 (stereo not drawn) [Compound 63]	1090 nM	–	< 3000 nM	–	–
8.02	> 7.00	CNCCN(C)Cc1c[nH]nc1C1CCC2(CCC(C)(C)CC2)OC1 (stereo not drawn) [Compound 65]	77.5 nM	–	< 3000 nM	–	–
8.04	> 7.00	CCC(CC)OC1CCC(c2n[nH]cc2CN(C)CCNC)CC1 (stereo not drawn) [Compound 70]	50 nM	–	< 3000 nM	–	–
5.71	5.52 to 6.00	CNCCN(C)Cc1c[nH]nc1C1CC(COC)C(C)(C)C(COC)C1 (stereo not drawn) [Compound 86]	16.8 nM	–	< 3000 nM	–	–
6.25	6.00 to 7.00	CCOCC1CC(c2n[nH]cc2CN(C)CCNC)CC(COCC)C1(C)C (stereo not drawn) [Compound 87]	2530 nM	–	< 3000 nM	–	–
7.46	> 7.00	CNCCN(C)Cc1c[nH]nc1C1CCC(C)(C)C(C(=O)NCC(C)C)C1 (stereo not drawn) [Compound 90]	316 nM	–	< 3000 nM	–	–
7.78	> 7.00	CNCCN(C)Cc1c[nH]nc1C1CCC(C)(C)C(C(=O)NCCC(C)C)C1 (stereo not drawn) [Compound 91]	2060 nM	–	< 3000 nM	–	–
8.03	> 7.00	CNCCN(C)Cc1c[nH]nc1C1CCC(C)(C)C(COCC(C)C)C1 (stereo not drawn) [Compound 95]	122 nM	–	< 3000 nM	–	–
